{
  "source": "ChEMBL document CHEMBL5226297",
  "about": "“Small-Molecule Drug Discovery in Triple Negative Breast Cancer: Current Situation and Future Directions” (J Med Chem, 2021)",
  "key": {"[1]": {"test_system": "MDA-MB-231", "experiment": "Anticancer activity against human MDA-MB-231 cells assessed as cell growth inhibition by MTS assay", "type": "functional, cell-based"}, "[2]": {"test_system": "BT-549", "experiment": "Anticancer activity against human BT-549 cells assessed as cell growth inhibition by MTS assay", "type": "functional, cell-based"}, "[3]": {"test_system": "Hs-578T", "experiment": "Anticancer activity against human Hs-578T cells assessed as cell growth inhibition by MTS assay", "type": "functional, cell-based"}, "[4]": {"molecular_target": "N-lysine methyltransferase SMYD2 (Homo sapiens, UniProt Q9NRG4)", "sequence (Q9NRG4 whole entry)": "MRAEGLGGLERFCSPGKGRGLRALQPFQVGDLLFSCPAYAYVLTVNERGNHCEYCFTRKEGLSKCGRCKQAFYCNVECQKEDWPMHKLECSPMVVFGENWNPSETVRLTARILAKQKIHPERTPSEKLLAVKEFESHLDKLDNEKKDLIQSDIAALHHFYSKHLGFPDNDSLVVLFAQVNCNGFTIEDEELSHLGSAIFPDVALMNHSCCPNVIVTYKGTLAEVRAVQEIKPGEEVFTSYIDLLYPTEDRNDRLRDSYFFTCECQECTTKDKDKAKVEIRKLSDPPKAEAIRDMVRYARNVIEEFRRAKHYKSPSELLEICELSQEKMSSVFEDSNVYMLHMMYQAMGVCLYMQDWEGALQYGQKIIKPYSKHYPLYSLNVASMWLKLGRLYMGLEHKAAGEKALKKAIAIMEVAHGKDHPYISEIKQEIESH", "experiment": "Inhibition of human SMYD2 by western blot assay"}, "[5]": {"test_system": "HCC1937", "experiment": "Anticancer activity against human HCC1937 cells assessed as cell growth inhibition incubated for 72 hrs by MTT assay", "type": "functional, cell-based", "details": "HCC1937, 72 h"}, "[6]": {"test_system": "Hs-578T", "experiment": "Anticancer activity against human Hs-578T cells assessed as cell growth inhibition incubated for 72 hrs by MTT assay", "type": "functional, cell-based"}, "[7]": {"test_system": "HCC70", "experiment": "Anticancer activity against human HCC70 cells assessed as cell growth inhibition incubated for 72 hrs by MTT assay", "type": "functional, cell-based", "details": "HCC70, 72 h"}, "[8]": {"test_system": "MDA-MB-436", "experiment": "Anticancer activity against human MDA-MB-436 cells assessed as cell growth inhibition incubated for 24 hrs by MTT assay", "type": "functional, cell-based", "details": "MDA-MB-436, 24 h"}, "[9]": {"test_system": "MDA-MB-231", "experiment": "Anticancer activity against human MDA-MB-231 cells assessed as cell growth inhibition incubated for 24 hrs by MTT assay", "type": "functional, cell-based", "details": "MDA-MB-231, 24 h"}, "[10]": {"experiment": "Inhibition of MEK (unknown origin)", "design": "species or system Homo sapiens"}, "[11]": {"experiment": "Inhibition of ERK (unknown origin)", "design": "species or system Homo sapiens"}, "[12]": {"test_system": "HCC1937", "experiment": "Anticancer activity against human HCC1937 cells assessed as cell growth inhibition by MTT assay", "type": "functional, cell-based"}, "[13]": {"test_system": "BT-549", "experiment": "Anticancer activity against human BT-549 cells assessed as cell growth inhibition by MTT assay", "type": "functional, cell-based"}, "[14]": {"molecular_target": "Protein tyrosine phosphatase type IVA 3 (Homo sapiens) (UniProt O75365)", "sequence (O75365 whole entry)": "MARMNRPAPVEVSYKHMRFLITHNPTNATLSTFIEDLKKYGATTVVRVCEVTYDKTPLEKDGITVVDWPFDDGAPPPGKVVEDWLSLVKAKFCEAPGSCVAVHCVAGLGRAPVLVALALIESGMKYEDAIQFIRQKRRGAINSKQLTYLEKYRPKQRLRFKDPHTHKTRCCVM", "experiment": "Inhibition of human PRL-3 incubated for 48 hrs by MMP assay"}, "[15]": {"molecular_target": "Protein SET (Homo sapiens) (UniProt Q01105)", "sequence (Q01105 whole entry)": "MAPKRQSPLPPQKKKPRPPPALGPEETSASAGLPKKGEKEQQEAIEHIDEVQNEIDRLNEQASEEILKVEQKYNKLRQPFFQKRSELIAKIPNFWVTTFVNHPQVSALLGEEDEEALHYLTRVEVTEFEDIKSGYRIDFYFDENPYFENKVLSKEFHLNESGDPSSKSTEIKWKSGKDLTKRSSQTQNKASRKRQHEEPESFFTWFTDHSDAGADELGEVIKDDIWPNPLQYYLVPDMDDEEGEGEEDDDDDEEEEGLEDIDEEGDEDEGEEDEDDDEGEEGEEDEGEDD", "experiment": "Inhibition of SET (unknown origin)"}, "[16]": {"test_system": "BT-549", "experiment": "Anticancer activity against human BT-549 cells assessed as cell growth inhibition incubated for 72 hrs by CCK-8 assay", "type": "functional, cell-based", "details": "BT-549, 72 h"}, "[17]": {"test_system": "MDA-MB-231", "experiment": "Anticancer activity against human MDA-MB-231 cells assessed as cell growth inhibition incubated for 72 hrs by CCK-8 assay", "type": "functional, cell-based", "details": "MDA-MB-231, 72 h"}, "[18]": {"test_system": "Hs-578T", "experiment": "Anticancer activity against human Hs-578T cells assessed as cell growth inhibition incubated for 72 hrs by CCK-8 assay", "type": "functional, cell-based"}, "[19]": {"experiment": "Inhibition of cIAP1 (unknown origin)", "design": "species or system Homo sapiens"}, "[20]": {"test_system": "MDA-MB-231", "experiment": "cells", "details": "Homo sapiens, MDA-MB-231, 48 h"}, "[21]": {"test_system": "MDA-MB-468", "experiment": "Anticancer activity against human MDA-MB-468 cells assessed as cell growth inhibition incubated for 48 hrs by MTT assay", "type": "functional, cell-based", "details": "MDA-MB-468, 48 h"}, "[22]": {"test_system": "MDA-MB-231", "experiment": "Anticancer activity against human MDA-MB-231 cells assessed as cell growth inhibition incubated up to 72 hrs by Cell-Titre Glo assay", "type": "functional, cell-based", "details": "MDA-MB-231, 72 h"}, "[23]": {"test_system": "HCC70", "experiment": "Anticancer activity against human HCC70 cells assessed as cell growth inhibition incubated up to 72 hrs by Cell-Titre Glo assay", "type": "functional, cell-based", "details": "HCC70, 72 h"}, "[24]": {"test_system": "HCC1806", "experiment": "Anticancer activity against human HCC1806 cells assessed as cell growth inhibition incubated for 48 hrs by SRB assay", "type": "functional, cell-based", "details": "HCC1806, 48 h"}, "[25]": {"test_system": "4T1", "experiment": "Anticancer activity against mouse 4T1 cells assessed as cell growth inhibition by MTS assay", "type": "functional, cell-based"}, "[26]": {"test_system": "MDA-MB-231", "experiment": "Anticancer activity against human MDA-MB-231 cells assessed as cell growth inhibition by MTT assay", "type": "functional, cell-based"}, "[27]": {"molecular_target": "Eukaryotic elongation factor 2 kinase (Homo sapiens, UniProt O00418)", "sequence (O00418 whole entry)": "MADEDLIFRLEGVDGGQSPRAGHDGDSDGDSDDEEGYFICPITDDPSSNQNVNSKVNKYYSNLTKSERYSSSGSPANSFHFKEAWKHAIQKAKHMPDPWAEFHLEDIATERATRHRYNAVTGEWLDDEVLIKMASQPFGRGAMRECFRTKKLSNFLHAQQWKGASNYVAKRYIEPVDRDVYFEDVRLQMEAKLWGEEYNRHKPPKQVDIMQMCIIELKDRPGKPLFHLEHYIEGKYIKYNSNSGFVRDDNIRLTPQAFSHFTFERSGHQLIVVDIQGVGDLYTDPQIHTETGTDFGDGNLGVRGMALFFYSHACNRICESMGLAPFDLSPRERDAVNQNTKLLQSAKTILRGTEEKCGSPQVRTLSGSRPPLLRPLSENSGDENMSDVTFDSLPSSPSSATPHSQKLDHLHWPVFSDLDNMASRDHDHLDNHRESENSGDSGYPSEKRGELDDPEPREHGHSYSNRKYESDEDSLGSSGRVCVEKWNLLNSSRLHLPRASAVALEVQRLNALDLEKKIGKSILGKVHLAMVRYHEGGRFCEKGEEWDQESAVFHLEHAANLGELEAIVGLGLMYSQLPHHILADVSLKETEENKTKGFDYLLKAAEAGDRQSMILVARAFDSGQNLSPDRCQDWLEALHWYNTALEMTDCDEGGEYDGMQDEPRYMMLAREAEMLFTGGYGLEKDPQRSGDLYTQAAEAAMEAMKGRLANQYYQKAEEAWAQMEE", "experiment": "Inhibition of eEF2K (unknown origin) by western blot analysis"}},
  "data": [
    {"smiles": "COc1cc2nccc(C(OC(C)=O)c3ccc4c(c3OC)C=CC(C)(C)O4)c2cc1OC", "note": "(stereo unspecified)", "values": [
      {"measurement": "IC50", "setting": "[1]", "result": 5, "unit": "µM"},
      {"measurement": "IC50", "setting": "[2]", "result": 15, "unit": "µM"},
      {"measurement": "IC50", "setting": "[3]", "result": 5, "unit": "µM"}
    ]},
    {"smiles": "O=C1COc2c(CCNCCN(C(=O)CCNCCc3ccc(Cl)c(Cl)c3)C3CCCCC3)ccc(O)c2N1", "values": [
      {"measurement": "IC50", "setting": "[4]", "result": 20, "unit": "µM"}
    ]},
    {"smiles": "C[C@@H]1COC(Nc2ccc3ncnc(Nc4ccc(OCc5nccs5)c(Cl)c4)c3c2)=N1", "note": "[VARLITINIB]", "values": [
      {"measurement": "IC50", "setting": "[5]", "result": 20, "unit": "µM"},
      {"measurement": "IC50", "setting": "[6]", "result": 10, "unit": "µM"},
      {"measurement": "IC50", "setting": "[7]", "result": 10, "unit": "µM"}
    ]},
    {"smiles": "CNCCC(Oc1ccc(C(F)(F)F)cc1)c1ccccc1", "note": "(stereo unspecified) [FLUOXETINE]", "values": [
      {"measurement": "IC50", "setting": "[8]", "result": 0.5, "unit": "µM"},
      {"measurement": "IC50", "setting": "[9]", "result": 0.5, "unit": "µM"}
    ]},
    {"smiles": "CCOC(=O)C1=C(C)NC(=O)NC1c1cccc([N+](=O)[O-])c1", "note": "(stereo unspecified)", "values": [
      {"measurement": "IC50", "setting": "[10]", "result": 50, "unit": "µM"},
      {"measurement": "IC50", "setting": "[11]", "result": 50, "unit": "µM"}
    ]},
    {"smiles": "Cc1cc(C=C2C(=O)C=CC2=O)cc(C)c1O", "values": [
      {"measurement": "IC50", "setting": "[12]", "result": 51.1, "unit": "µM"},
      {"measurement": "IC50", "setting": "[13]", "result": 27.5, "unit": "µM"}
    ]},
    {"smiles": "C=C1/C(=C\\C=C2/CCC[C@]3(C)[C@@H]([C@H](C)CCCC(C)(C)O)CC[C@@H]23)C[C@@H](OC(=O)CBr)C[C@@H]1O", "values": [
      {"measurement": "IC", "setting": "[14]", "result": 100, "unit": "nM"}
    ]},
    {"smiles": "C=C1[C@H]2[C@@H](/C(=C/C)C(=O)[C@H]2CC(=O)C(C)CC)[C@H](C(C)C)N[C@H]1CC(=O)/C=C(\\C)CC", "note": "(stereo partly specified)", "values": [
      {"measurement": "IC50", "setting": "[9]", "result": 5, "unit": "µM"}
    ]},
    {"smiles": "Clc1cc(Cl)cc(C(Cn2ccnc2)OCc2nc3ccccc3s2)c1", "note": "(stereo unspecified)", "values": [
      {"measurement": "IC50", "setting": "[11]", "result": 5, "unit": "µM"}
    ]},
    {"smiles": "C#Cc1cccc(Nc2nc(Nc3ccc(Oc4ccccc4)cc3)nc3cc(OC)c(OC)cc23)c1", "values": [
      {"measurement": "IC", "setting": "[15]", "result": 3, "unit": "µM"}
    ]},
    {"smiles": "O=C(Nc1ccc([N+](=O)[O-])cc1Cl)c1cc(Cl)ccc1O", "note": "[NICLOSAMIDE]", "values": [
      {"measurement": "IC50", "setting": "[9]", "result": 0.625, "unit": "µM"}
    ]},
    {"smiles": "OC[C@H]1O[C@@H](OCCc2ccc(O)cc2)[C@H](O)[C@@H](O)[C@@H]1O", "note": "[SALIDROSIDE]", "values": [
      {"measurement": "IC50", "setting": "[9]", "result": 40, "unit": "µM"}
    ]},
    {"smiles": "CO[C@H]1/C=C\\C=C(/C)C(=O)NC2=CC(=O)C(NCCN(C)C)=C(C[C@@H](C)C[C@H](OC)[C@H](O)[C@@H](C)/C=C(\\C)[C@@H]1OC(N)=O)C2=O", "note": "[ALVESPIMYCIN]", "values": [
      {"measurement": "IC50", "setting": "[16]", "result": 17.1, "unit": "µM"},
      {"measurement": "IC50", "setting": "[17]", "result": 45.7, "unit": "µM"},
      {"measurement": "IC50", "setting": "[18]", "result": 0.0084, "unit": "µM"}
    ]},
    {"smiles": "CN[C@@H](C)C(=O)N[C@H](C(=O)N1CCC[C@H]1c1nc(C(=O)c2ccc(F)cc2)cs1)C1CCCCC1", "note": "[LCL-161]", "values": [
      {"measurement": "IC50", "setting": "[19]", "result": 0.0004, "unit": "µM"}
    ]},
    {"smiles": "Cc1c(-c2ccc(O)cc2)n(Cc2ccc(OCCN3CCCCCC3)cc2)c2ccc(O)cc12", "note": "[BAZEDOXIFENE]", "values": [
      {"measurement": "IC50", "setting": "[20]", "result": 7.45, "unit": "µM"},
      {"measurement": "IC50", "setting": "[21]", "result": 3.14, "unit": "µM"}
    ]},
    {"smiles": "CC(=O)O[C@@H]1[C@@H](OC(C)=O)[C@@H](O)[C@H](Oc2c(-c3ccc(O)cc3)oc3cc(O)cc(O)c3c2=O)O[C@H]1C", "values": [
      {"measurement": "IC50", "setting": "[22]", "result": 3, "unit": "µM"},
      {"measurement": "IC50", "setting": "[23]", "result": 15, "unit": "µM"}
    ]},
    {"smiles": "CN(C)CC/C=C1\\c2ccccc2COc2ccc(CC(=O)NN)cc21", "values": [
      {"measurement": "IC50", "setting": "[8]", "result": 5, "unit": "µM"}
    ]},
    {"smiles": "C[C@H]1[C@H](C)CC[C@]2(C(=O)N3CCNCC3)CC[C@]3(C)C(=CC[C@@H]4[C@@]5(C)Cc6cn[nH]c6C(C)(C)[C@@H]5CC[C@]43C)[C@H]12", "values": [
      {"measurement": "IC50", "setting": "[24]", "result": 7, "unit": "µM"}
    ]},
    {"smiles": "CCN(CC)C(=S)SSC(=S)N(CC)CC", "values": [
      {"measurement": "IC50", "setting": "[25]", "result": 0.25, "unit": "µM"}
    ]},
    {"smiles": "O=C(/C=C/c1ccc(O)c(O)c1)O[C@@H]1C[C@](OC(=O)/C=C/c2ccc(O)c(O)c2)(C(=O)O)C[C@@H](O)[C@H]1O", "note": "[1,5-O-TRANS-DICAFFEOYLQUINIC ACID]", "values": [
      {"measurement": "IC50", "setting": "[26]", "result": 81.9, "unit": "µM"}
    ]},
    {"smiles": "CC1=CC(=O)C(C(C)C)=CC1=O", "note": "[THYMOQUINONE]", "values": [
      {"measurement": "IC50", "setting": "[27]", "result": 8.2, "unit": "µM"}
    ]},
    {"smiles": "COC(=O)Nc1nc2cc(C(=O)c3ccc(F)cc3)ccc2[nH]1", "note": "[FLUBENDAZOLE]", "values": [
      {"measurement": "IC50", "setting": "[1]", "result": 0.25, "unit": "µM"},
      {"measurement": "IC50", "setting": "[2]", "result": 0.125, "unit": "µM"},
      {"measurement": "IC50", "setting": "[9]", "result": 0.5, "unit": "µM"},
      {"measurement": "IC50", "setting": "[3]", "result": 0.125, "unit": "µM"}
    ]}
  ]
}
